Patent US20190100794A1, “Blood matrix metalloproteinase 9 (MMP9) is a predictive biomarker for cardiac diseases and disorders” (University of Rochester, priority 2017, published 2019)
Each block holds one molecule with its values, some of them ahead of it.

Assays:
[1] = target: T1, PAR1 (Homo sapiens, UniProt P25116); details: triple therapy of DAPT plus vorapaxar, cited from earlier work
T1 construct: Thrombin-Receptor Antagonist Vorapaxar in Acute Coronary Syndromes (TRACER) study; host or cells: patients of a clinical trial (Tricoci P, et al., 2012, N Engl J Med)
T1 sequence (P25116 22-425): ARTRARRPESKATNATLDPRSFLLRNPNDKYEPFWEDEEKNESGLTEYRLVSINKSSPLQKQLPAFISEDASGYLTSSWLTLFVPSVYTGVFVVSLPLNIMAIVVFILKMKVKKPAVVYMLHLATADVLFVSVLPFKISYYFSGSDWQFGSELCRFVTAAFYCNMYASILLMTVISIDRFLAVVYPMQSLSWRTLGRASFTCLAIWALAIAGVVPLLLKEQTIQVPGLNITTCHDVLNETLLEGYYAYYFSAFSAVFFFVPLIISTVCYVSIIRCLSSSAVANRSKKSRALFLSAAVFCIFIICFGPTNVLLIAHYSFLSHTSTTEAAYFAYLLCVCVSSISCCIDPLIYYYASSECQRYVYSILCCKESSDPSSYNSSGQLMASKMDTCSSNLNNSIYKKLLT

[2] = tested on: ERK5 in platelets; assay: Platelet activation by FACS P-selectin expression after TRAP6 stimulation, with ERK5 inhibitor pre-incubation; assay type: cell-based, human; details: platelets from healthy volunteers or NSTEMI patients; BIX 02189 0-100 μM, 30 minutes; TRAP6 10 μM, 15 minutes; P<0.05
Description: (FIG. 4A) All patients were given 325 mg aspirin at least 30 minutes prior to blood draw. Platelets were isolated from healthy volunteer subjects (control) or from patients with STEMI or NSTEMI. ERK5 activation was assessed by Western blotting using a phosphor-specific antibody (P-ERK5). A pan-ERK5 antibody was used to detect total ERK5 and the ratio (P-ERK5/ERK5) was used to report ERK5 activity as mean±SEM, n=10-13. *p<0.05 control vs. STEMI, **p=0.01 control vs NSTEMI. The molecular weight is indicated in kiloDaltons (kDa). (FIG. 4B) All patients were given 325-mg aspirin at least 30 minutes before blood draw. […] Platelet activation was assessed by fluorescence-activated cell sorting by P-selectin expression, mean fluorescence intensity (MFI)±SEM, all performed in quadruplicate in each group, n=4. *P<0.05 between NSTEMI/TRAP6 and NSTEMI/TRAP6+BIX 02189 and **P<0.05 control/TRAP6 and control/TRAP6+BIX 02189.
For each study subject, blood was obtained by a trained medical professional into citrate plasma tubes, then centrifuged in a tabletop centrifuge at 1100 rpm for 15 mins. […] This reaction was then stopped by adding 100 μL of 2% formalin to each reaction, and then quantification of platelet surface P-selectin was made possible using an Accuri Flow Cytometer (BD Biosciences) at 10K events per sample. […] Platelet surface p-selectin was quantified in quadruplicate using the geometric mean. […]

[3] = target: T2, platelet cyclooxygenase (COX) (Homo sapiens, UniProt P23219); assay: Plasma TxB2 concentration by ELISA as marker of aspirin inhibition of platelet cyclooxygenase; assay type: in vivo; details: STEMI and NSTEMI patients given 325 mg aspirin at least 30 min before blood draw, versus healthy volunteers not treated with aspirin
T2 construct: endogenous in cells; plasma TxB2 measured by ELISA
T2 sequence (P23219 24-599): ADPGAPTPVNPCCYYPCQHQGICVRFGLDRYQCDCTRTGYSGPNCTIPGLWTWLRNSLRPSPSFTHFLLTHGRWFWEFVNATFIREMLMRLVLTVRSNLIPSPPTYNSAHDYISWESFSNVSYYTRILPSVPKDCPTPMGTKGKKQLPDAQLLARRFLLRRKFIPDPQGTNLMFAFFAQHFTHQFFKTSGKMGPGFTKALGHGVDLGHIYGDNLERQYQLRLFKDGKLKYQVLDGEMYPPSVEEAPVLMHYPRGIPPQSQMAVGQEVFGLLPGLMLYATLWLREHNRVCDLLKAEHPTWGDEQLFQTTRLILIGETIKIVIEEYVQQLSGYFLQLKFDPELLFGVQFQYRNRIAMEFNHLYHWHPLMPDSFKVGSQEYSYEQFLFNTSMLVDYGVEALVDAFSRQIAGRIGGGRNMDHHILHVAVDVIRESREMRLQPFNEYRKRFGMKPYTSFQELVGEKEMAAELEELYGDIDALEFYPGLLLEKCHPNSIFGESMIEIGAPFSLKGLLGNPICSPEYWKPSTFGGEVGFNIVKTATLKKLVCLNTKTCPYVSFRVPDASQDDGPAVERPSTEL
Description: Blood was taken from patients immediately upon presentation with STEMI or NSTEMI and compared to healthy volunteer subjects. Each patient had been given 325 mg aspirin at least 30 mins prior to the blood draw. Plasma was isolated and biomarker concentration was evaluated by ELISA. Plasma TxB2 concentration served as a surrogate marker to assess for differences in efficacy of aspirin between groups, comparing this to healthy volunteer subjects (control) not taking aspirin. […] ELISA=Enzyme-Linked Immunosorbant Assay.
Each patient was treated with 325 mg aspirin in the ambulance, in the ED, or hospital least 30 minutes prior to blood draw.
Enzyme-linked immunosorbant assays (ELISAs) were conducted according to the manufacturer's instructions using the sandwich ELISA technique. […] The ELISA for plasma thromboxane B2 (cat#501020) was purchased from Cayman Chemicals.

SMILES: CCOC(=O)N[C@@H]1CC[C@@H]2[C@@H](C1)C[C@H]1C(=O)O[C@H](C)[C@H]1[C@H]2/C=C/c1ccc(-c2cccc(F)c2)cn1 [vorapaxar]
- relative reduction in the primary end point ([1]; nonsignificant): 8%
- bleeding [1]: trend toward clinically significant bleeding

SMILES: CN(C)Cc1cccc(N/C(=C2\C(=O)Nc3cc(C(=O)N(C)C)ccc32)c2ccccc2)c1 [BIX 02189]
- TRAP6-induced platelet activation (P-selectin expression, MFI) [2]: prevents platelet activation

- plasma TxB2 concentration [3]: decrease
SMILES: CC(=O)Oc1ccccc1C(=O)O [aspirin]
